Experimental findings from US12649746B2, “Ketorolaco derivative, pharmaceutical composition and preparation method therefor and use thereof” (NANJING HERON PHARMACEUTICAL SCIENCE AND TECHNOLOGY CO., …, priority 2020, dated 2026) are described below.

Structures are written as SMILES. Entries after “also recorded” stand apart in the source; their conditions may differ. Like-named read-outs stand apart in the source and are kept apart here.

Series [1] can be described thus: High temperature stability study of compounds (60° C.). It counts as physicochemical. Conditions: in the dark; for Ketorolac (%): related substance. Here is the method: Test protocol: the compounds prepared in the present disclosure were placed in a colorless and transparent vial, placed in the dark at a high temperature (60° C.), and were sampled for day 0, day 5 and day 10, respectively, and the purity of the compounds and the change of the related substance (ketorolac) were determined.

Series [2] can be described thus: By-product toxicity test (metabolic byproducts in the human body). Conditions: for Metabolic by-products in human body: by the metabolic pathways of the compounds in the human body; for Toxicity: toxicity of the metabolic by-products in human body.
Series [3] can be described thus: Enzymolysis kinetics experiment of compounds in plasma. The settings on record: for half-life at 97.6 µM: human, plasma; for Content of the compound %: human plasma, 37° C.
For series [4] the following is noted: human, 97.6 µM.
A short description of another series: in vitro. The settings on record: human, plasma.

For `CCC(=O)OC(C)OC(=O)C1CCn2c(C(=O)c3ccccc3)ccc21` (stereo not shown) [N4], in series [1] (Day 0), the “Total main peak purity (%)” value worked out at 98.91% and the “Ketorolac (%)” value turned out to be 0.12%. Also, in series [1] (Day 5), the “Total main peak purity (%)” value is given as 98.38% and the “Ketorolac (%)” value is 0.17%. Further, in series [1] (Day 10), the “Total main peak purity (%)” value was 98.04% and the “Ketorolac (%)” value was determined as 0.14%. In addition, in series [2], the “Metabolic by-products in human body” value was “Acetaldehyde and propionic acid”; the Toxicity result was “relatively low”.

Consider `CC(OC(=O)OC1CCCCC1)OC(=O)C1CCn2c(C(=O)c3ccccc3)ccc21` (stereo not shown) [N10], for which, in series [1] (Day 0), the “Total main peak purity (%)” value was 96.36% and the “Ketorolac (%)” value is recorded as 0.05%. In addition, in series [1] (Day 5), the “Total main peak purity (%)” value amounted to 94.28% and the “Ketorolac (%)” value was 0.23%. In series [1] (Day 10), the “Total main peak purity (%)” value was determined as 94.41% and the “Ketorolac (%)” value was 0.37%. In addition, in series [2], the “Metabolic by-products in human body” value was “Acetaldehyde and cyclohexanol”; the Toxicity result is given as “relatively low toxicity of byproducts”.

For the molecule `CC(OC(=O)C1CCn2c(C(=O)c3ccccc3)ccc21)OC(=O)C1CCn2c(C(=O)c3ccccc3)ccc21` (stereo not shown) [N22], the “metabolic rates (in words)” value in series [3] (summary statement, metabolized in a human body) is recorded as “slow metabolic rates”. Also, in series [2], the “Metabolic by-products in human body” value is given as “Acetaldehyde” and the Toxicity result is “relatively low toxicity of byproducts”.

Turning to `CCC(OC(=O)OC(C)C)OC(=O)C1CCn2c(C(=O)c3ccccc3)ccc21` (stereo not shown) [N16], the “Total main peak purity (%)” value in series [1] (Day 0) was 97.33%; in series [1] (Day 5), 96.50%; in series [1] (Day 10), 96.16%. For the same molecule, the “Ketorolac (%)” value in series [1] (Day 0) was 0.05%; in series [1] (Day 5), 0.07%; in series [1] (Day 10), 0.07%. Also, the “Content of ketorolac %” value stood at 0% in series [4] (0 min); 9.847 ± 2.479% in series [4] (15 min); 28.653 ± 0.277% in series [4] (30 min); 56.793 ± 2.096% in series [4] (60 min); 70.443 ± 4.274% in series [4] (120 min). The “Content of the compound %” value in series [4] (0 min) worked out at 100 ± 4.001%; in series [4] (15 min), 82.710 ± 1.909%; in series [4] (30 min), 65.987 ± 0.506%; in series [4] (60 min), 35.437 ± 1.960%; in series [4] (120 min), 7.047 ± 0.374%. In addition, the half-life (as a rule, the time needed for the level to fall by half in the phase considered) at 97.6 µM in “in vitro” turned out to be 31.6 min.

On to `CCC(OC(C)=O)OC(=O)C1CCn2c(C(=O)c3ccccc3)ccc21` (stereo not shown) [N3], for which, in series [1] (Day 0), the “Total main peak purity (%)” value is listed as 92.45% and the “Ketorolac (%)” value is on record as 0.11%. Moreover, in series [1] (Day 5), the “Total main peak purity (%)” value was 90.83% and the “Ketorolac (%)” value is 0.15%. In addition, in series [1] (Day 10), the “Total main peak purity (%)” value worked out at 90.36% and the “Ketorolac (%)” value is given as 0.17%. Further, in series [2], the “Metabolic by-products in human body” value was “Propionaldehyde and acetic acid”; the Toxicity result is listed as “relatively low”.

Regarding `COC(=O)OC(C)OC(=O)C1CCn2c(C(=O)c3ccccc3)ccc21` (stereo not shown) [N13], in series [2], the “Metabolic by-products in human body” value is “Acetaldehyde and methanol”; the Toxicity entry was “Methanol is more toxic”.

Take `CC(OC(=O)C(C)C)OC(=O)C1CCn2c(C(=O)c3ccccc3)ccc21` (stereo not shown) [N6]: the “Total main peak purity (%)” value in series [1] (Day 0) is listed as 91.56%; in series [1] (Day 5), 90.94%; in series [1] (Day 10) it was 90.22%. Further, the “Ketorolac (%)” value in series [1] (Day 0) is recorded as 0.14%; in series [1] (Day 5), 0.13%; in series [1] (Day 10), 0.17%. For the same molecule, in series [2], the “Metabolic by-products in human body” value is “Acetaldehyde and isobutyric acid”.

As for `CC(C)OC(=O)OC(OC(=O)C1CCn2c(C(=O)c3ccccc3)ccc21)C(C)C` (stereo not shown) [N19], the “Total main peak purity (%)” value in series [1] (Day 0) is recorded as 96.30%; in series [1] (Day 5), 94.61%; in series [1] (Day 10), 94.41%. Also, the “Ketorolac (%)” value amounted to 0.07% in series [1] (Day 0), 0.09% in series [1] (Day 5) and 0.12% in series [1] (Day 10).

The molecule `CCOC(=O)OC(CC)OC(=O)C1CCn2c(C(=O)c3ccccc3)ccc21` (stereo not shown) [N15] showed a half-life at 97.6 µM in series [3] of 16.9 min. Besides, the “Total main peak purity (%)” value is 96.30% in series [1] (Day 0), 95.87% in series [1] (Day 5) and 95.59% in series [1] (Day 10). The “Ketorolac (%)” value turned out to be 0.08% in series [1] (Day 0), 0.09% in series [1] (Day 5) and 0.14% in series [1] (Day 10). For the same molecule, the “Content of ketorolac %” value in series [4] (0 min) came out at 1.727 ± 1.502%; in series [4] (15 min) it was 23.933 ± 1.119%; in series [4] (30 min), 50.917 ± 1.868%; in series [4] (60 min) it was 83.957 ± 3.139%; in series [4] (120 min) it was 96.910 ± 3.848%. The “Content of the compound %” value in series [4] (0 min) was found to be 99.560 ± 2.324%; in series [4] (15 min), 76.800 ± 2.423%; in series [4] (30 min), 46.680 ± 2.229%; in series [4] (60 min), 12.760 ± 1.133%; in series [4] (120 min), 0.893 ± 0.051%.

Consider `CC(C)OC(=O)OC(C)OC(=O)C1CCn2c(C(=O)c3ccccc3)ccc21` (stereo not shown) [N2], for which the “Total main peak purity (%)” value in series [1] (Day 0) is given as 95.58%; in series [1] (Day 5), 95.21%; in series [1] (Day 10), 94.82%. Moreover, the “Ketorolac (%)” value in series [1] (Day 0) is given as 0.03%; in series [1] (Day 5) it was 0.04%; in series [1] (Day 10), 0.05%. For the same molecule, the “Content of ketorolac %” value in series [4] (0 min) is on record as 1.050 ± 0.079%; in series [4] (15 min), 8.860 ± 0.426%; in series [4] (30 min), 20.993 ± 0.561%; in series [4] (60 min), 34.590 ± 1.381%; in series [4] (120 min) it was 59.790 ± 2.019%. In addition, the “Content of the compound %” value in series [4] (0 min) was determined as 98.950 ± 3.765%; in series [4] (15 min), 88.103 ± 2.289%; in series [4] (30 min), 72.813 ± 2.707%; in series [4] (60 min), 47.510 ± 1.739%; in series [4] (120 min), 12.573 ± 0.260%. Besides, in series [2], the “Metabolic by-products in human body” value is “Acetaldehyde and isopropyl alcohol”. In series [2], the Toxicity entry is listed as “low toxicity of byproducts; also recorded: relatively low”. This molecule yielded a half-life at 97.6 µM in the series “in vitro” of 38.6 min.

Regarding `CCC(=O)OC(OC(=O)C1CCn2c(C(=O)c3ccccc3)ccc21)C(C)C` (stereo not shown) [N9], the “Total main peak purity (%)” value came out at 96.21% in series [1] (Day 0), 95.58% in series [1] (Day 5) and 95.21% in series [1] (Day 10). For the same molecule, the “Ketorolac (%)” value was found to be 0.29% in series [1] (Day 0), 0.31% in series [1] (Day 5) and 0.30% in series [1] (Day 10).

`CCCCCCC(=O)OC(C)OC(=O)C1CCn2c(C(=O)c3ccccc3)ccc21` (stereo not shown) [N27]: the “Content of the compound %” value in series [3] (1 min) is on record as 100%; in series [3] (15 min), 100%; in series [3] (30 min) it was 90.63 ± 1.81%; in series [3] (60 min) it was 63.89 ± 1.20%; in series [3] (120 min), 35.75 ± 1.46%. Also, the half-life at 97.6 µM in series [3] was 73.9 min. In series [2], the “Metabolic by-products in human body” value was “Acetaldehyde and n-heptanoic acid”. Further, in series [2], the Toxicity result is recorded as “low”.

Turning to `CCCCCCCCOC(=O)OC(C)OC(=O)C1CCn2c(C(=O)c3ccccc3)ccc21` (stereo not shown) [N26], the “Content of ketorolac %” value in series [4] (1 min) was determined as 0%; in series [4] (15 min), 0%; in series [4] (30 min) it was 3.89 ± 0.61%; in series [4] (60 min), 8.60 ± 0.33%; in series [4] (120 min) it was 24.34 ± 0.90%. The “Content of the compound %” value in series [4] (1 min) is recorded as 100%; in series [4] (15 min), 100%; in series [4] (30 min), 95.48 ± 1.56%; in series [4] (60 min) it was 89.20 ± 1.67%; in series [4] (120 min) it was 68.99 ± 1.45%. Besides, the Toxicity entry in series [2] is “n-octanol is more toxic”. In the series “in vitro”, this molecule showed a half-life at 97.6 µM of 177 min.

With `CC(=O)OC(OC(=O)C1CCn2c(C(=O)c3ccccc3)ccc21)C(C)C` (stereo not shown) [N5], the entries for the “Total main peak purity (%)” value in series [1] (Day 0), in series [1] (Day 5) and in series [1] (Day 10) were 97.46%, 97.62% and 97.37%, respectively. Also, the “Ketorolac (%)” value in series [1] (Day 0) is listed as 0.14%; in series [1] (Day 5), 0.15%; in series [1] (Day 10), 0.17%. The “Metabolic by-products in human body” value in series [2] is “Isobutyraldehyde and acetic acid”.

For the molecule `CC(OC(=O)C1CCn2c(C(=O)c3ccccc3)ccc21)OC(=O)C(C)(C)C` (stereo not shown) [N7], the “Total main peak purity (%)” value is recorded as 90.83% in series [1] (Day 0), 88.66% in series [1] (Day 5) and 88.59% in series [1] (Day 10). Also, the “Ketorolac (%)” value in series [1] (Day 0) is recorded as 0.18%; in series [1] (Day 5), 0.25%; in series [1] (Day 10), 0.32%. In addition, the “Metabolic by-products in human body” value in series [2] was “Acetaldehyde and pivalic acid”. Also, the Toxicity result in series [2] is “Pivalic acid is more toxic”.

For the molecule `CC(C)OC(=O)C1CCn2c(C(=O)c3ccccc3)ccc21` (stereo not shown) [N11, reference compound], the “Content of ketorolac %” value is listed as 0% in series [4] (0 min), 0% in series [4] (15 min), 0% in series [4] (30 min) and 2.270 ± 0.328% in series [4] (60 min). For the same molecule, the “Content of the compound %” value was 99.700 ± 2.928% in series [4] (0 min), 99.813 ± 4.881% in series [4] (15 min), 89.807 ± 2.538% in series [4] (30 min) and 83.490 ± 9.087% in series [4] (60 min). The molecule further yielded a half-life at 97.6 µM in the series “in vitro” of 347 min.
